Measurements from US11596639B2, “Substituted indole Mcl-1 inhibitors” (Vanderbilt University, priority 2016, dated 2023).
Read-outs that look alike come from different tables or passages of the source.

Tests used:
Mcl-1 = Mcl-1 (Homo sapiens (Human), UniProt Q07820); assay: Fluorescence polarization anisotropy (FPA) competition assay, FITC-Bak or FITC-Bim BH3 peptide; assay type: binding; conditions: read-out: Ki for Inhibition of Mcl-1 by FPA assay
[1] = test system: H929 human cancer cell lines; assay: Cellular viability / proliferation (Cell TiterGlo, 72 h); assay type: cell-based
In short: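 H929 cells plated at 1,000/well in 10% FBS medium received a 2-fold serial compound dilution (top 50 μM, DMSO <1%) 24 h later. After 72 h, viability was read by CellTiter-Glo luminescence. IC50 came from a four-parameter fit.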

[2] = Homo sapiens, NCI-H929, 72 h, read-out: GI50 on cellular proliferation of H929 human cancer cell lines, H929 cells, 72 h, Cell TiterGlo, 10% FBS
[3] = H929 cells, 72 h, Cell TiterGlo, 10% FBS, read-out: GI50 on cellular proliferation of H929 human cancer cell lines

Chain of Mcl-1 (Q07820 172-327): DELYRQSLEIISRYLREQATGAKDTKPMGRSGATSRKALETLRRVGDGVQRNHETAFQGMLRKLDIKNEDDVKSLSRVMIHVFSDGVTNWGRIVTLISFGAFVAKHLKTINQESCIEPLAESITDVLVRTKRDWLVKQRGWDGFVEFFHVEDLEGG

| Molecule | Ki (Mcl-1) | GI50 [1, 2] | GI50 [1, 3] | GI50 ([1]; read-out: GI50 on cellular proliferation of H929 human cancer cell lines, H929 cells, 72 h, Cell TiterGlo, 10% FBS) |
| --- | --- | --- | --- | --- |
| Cc1cc(OCCCc2c3n(c4c(-c5c(C)nn(C)c5C)c(Cl)ccc24)[C@H](C)CN(c2cn(C)c4ccc(C(=O)O)cc24)C3=O)ccc1Cl [Example 407, (R)-3-(7-Chloro-10-(3-(4-chloro-3-methylphenoxy)propyl)-4-methyl-1-oxo-6-(1,3,5-trimethyl-1H-pyrazol-4-yl)-3,4-dihydropyrazino[1,2-a]indol-2(1H)-yl)-1-methyl-1H-indole-5-carboxylic acid] | 1.1 nM | 490 nM | – | – |
| COCCN1CCN(Cc2nc(C)c(-c3c(Cl)ccc4c(CCCOc5cc(C)c(Cl)c(C)c5)c5n(c34)[C@H](C)CN(c3cn(C)c4ccc(C(=O)O)cc34)C5=O)c(C)n2)CC1 [Example 439, (R)-3-(7-Chloro-10-(3-(4-chloro-3,5-dimethylphenoxy)propyl)-6-(2-((4-(2-methoxyethyl)piperazin-1-yl)methyl)-4,6-dimethylpyrimidin-5-yl)-4-methyl-1-oxo-34-dihydropyrazino[1,2-a]indol-2(1H)-yl)-1-methyl-1H-indole-5-carboxylic acid] | 1.9 nM | – | < 200 nM | – |
| Cc1cc(OCCCc2c3n(c4c(-c5c(C)ncnc5C)c(Cl)ccc24)[C@H](C)CN(c2cc(C(=O)O)c4ccn(C)c4c2)C3=O)cc(C)c1Cl [Example 152, 6-[(4R)-7-chloro-10-[3-(4-chloro-3,5-dimethyl-phenoxy)propyl]-6-(4,6-dimethylpyrimidin-5-yl)-4-methyl-1-oxo-3,4-dihydropyrazino[1,2-a]indol-2-yl]-1-methyl-indole-4-carboxylic acid] | < 1 nM | 850 nM | – | – |
| Cc1cc(OCCCc2c3n(c4c(-c5c(C)nn(C)c5C)c(Cl)ccc24)[C@H](C)CN(c2cc(C(=O)O)cc4c2ccn4CCN2CCOCC2)C3=O)cc(C)c1Cl [Example 96, (R)-4-(7-chloro-10-(3-(4-chloro-3,5-dimethylphenoxy)propyl)-4-methyl-1-oxo-6-(1,3,5-trimethyl-1H-pyrazol-4-yl)-3,4-dihydropyrazino[1,2-a]indol-2(1H)-yl)-1-(2-morpholinoethyl)-1H-indole-6-carboxylic acid] | 2.9 nM | 4700 nM | – | – |
| Cc1cc(OCCCc2c3n(c4c(-c5c(C)nn(C)c5C)c(Cl)ccc24)CCCN(c2ccc4cnoc4c2)C3=O)cc(C)c1Cl [Example 64, 2-(1,2-benzoxazol-6-yl)-8-chloro-11-[3-(4-chloro-3,5-dimethyl-phenoxy)propyl]-7-(1,3,5-trimethylpyrazol-4-yl)-4,5-dihydro-3H-[1,4]diazepino[1,2-a]indol-1-one] | 4.8 nM | 5600 nM | – | – |
| Cc1cc(OCCCc2c3n(c4c(-c5c(C)nn(C)c5C)c(Cl)ccc24)[C@H](C)CN(c2cn(C)c4cc(C#N)ccc24)C3=O)cc(C)c1Cl [Example 206, (R)-3-(7-Chloro-10-(3-(4-chloro-3,5-dimethylphenoxy)propyl)-4-methyl-1-oxo-6-(1,3,5-trimethyl-1H-pyrazol-4-yl)-3,4-dihydropyrazino[1,2-a]indol-2(1H)-yl)-1-methyl-1H-indole-6-carbonitrile] | < 1 nM | 3200 nM | – | – |
| COc1ccc(N2C[C@@H](C)n3c(c(CCCOc4cc(C)c(Cl)c(C)c4)c4ccc(Cl)c(-c5c(C)nn(C)c5C)c43)C2=O)c2c1c(C(=O)O)cn2C [Example 445, (R)-7-(7-Chloro-10-(3-(4-chloro-3,5-dimethylphenoxy)propyl)-4-methyl-1-oxo-6-(1,3,5-trimethyl-1H-pyrazol-4-yl)-3,4-dihydropyrazino[1,2-a]indol-2(1H)-yl)-4-methoxy-1-methyl-1H-indole-3-carboxylic acid] | 2.2 nM | 820 nM | – | – |
| Cc1cc(OCCCc2c3n(c4c(-c5c(C)nn(C)c5C)c(Cl)ccc24)[C@H](C)CN(c2cn(C)c4c(-c5nnnn5C)cccc24)C3=O)cc(C)c1Cl [Example 372, (R)-7-Chloro-10-(3-(4-chloro-3,5-dimethylphenoxy)propyl)-4-methyl-2-(1-methyl-7-(1-methyl-1H-tetrazol-5-yl)-1H-indol-3-yl)-6-(1,3,5-trimethyl-1H-pyrazol-4-yl)-3,4-dihydropyrazino[1,2-a]indol-1(2H)-one] | 1.2 nM | 2000 nM | – | – |
| Cc1cc(OCCCc2c3n(c4c(-c5c(C)nn(C)c5C)c(Cl)ccc24)[C@H](C)CN(c2cn(C)c4ccc(S(=O)(=O)N5CCN(C)CC5)cc24)C3=O)cc(C)c1Cl [Example 274, (R)-7-chloro-10-(3-(4-chloro-3,5-dimethylphenoxy)propyl)-4-methyl-2-(1-methyl-5-((4-methylpiperazin-1-yl)sulfonyl)-1H-indol-3-yl)-6-(1,3,5-trimethyl-1H-pyrazol-4-yl)-3,4-dihydropyrazino[1,2-a]indol-1(2H)-one] | 4.8 nM | 2200 nM | – | – |
| Cc1cc(OCCCc2c3n(c4c(-c5c(C)nn(C)c5C)c(Cl)ccc24)[C@H](C)CN(c2cn(C)c4c(-c5nnn[nH]5)cccc24)C3=O)cc(C)c1Cl [Example 258, (R)-7-Chloro-10-(3-(4-chloro-3,5-dimethylphenoxy)propyl)-4-methyl-2-(1-methyl-7-(1H-tetrazol-5-yl)-1H-indol-3-yl)-6-(1,3,5-trimethyl-1H-pyrazol-4-yl)-3,4-dihydropyrazino[1,2-a]indol-1(2H)-one] | < 1 nM | 3600 nM | – | – |
| Cc1cc(OCCCc2c3n(c4c(-c5c(C)ncnc5C)c(Cl)ccc24)[C@H](C)CN(c2cccc4c(C(=O)O)ccnc24)C3=O)cc(C)c1Cl [Example 225, 8-[(4R)-7-chloro-10-[3-(4-chloro-3,5-dimethyl-phenoxy)propyl]-6-(4,6-dimethylpyrimidin-5-yl)-4-methyl-1-oxo-3,4-dihydropyrazino[1,2-a]indol-2-yl]quinoline-4-carboxylic acid] | < 1 nM | 3300 nM | – | – |
| Cc1cc(OCCCc2c3n(c4c(-c5c(C)nn(C)c5C)c(Cl)ccc24)[C@H](C)CN(c2cccc4c2cc(C(=O)O)n4CC2CCOCC2)C3=O)cc(C)c1Cl [Example 198, (R)-4-(7-Chloro-10-(3-(4-chloro-3,5-dimethylphenoxy)propyl)-4-methyl-1-oxo-6-(1,3,5-trimethyl-1H-pyrazol-4-yl)-3,4-dihydropyrazino[1,2-a]indol-2(1H)-yl)-1-((tetrahydro-2H-pyran-4-yl)methyl)-1H-indole-2-carboxylic acid] | < 1 nM | 610 nM | – | – |
| Cc1cc(OCCCc2c3n(c4c(-c5c(C)nc(CNC6CCN(C)CC6)nc5C)c(Cl)ccc24)[C@H](C)CN(c2cn(C)c4ccc(C(=O)O)cc24)C3=O)cc(C)c1Cl [Example 437, (R)-3-(7-Chloro-10-(3-(4-chloro-3,5-dimethylphenoxy)propyl)-6-(4,6-dimethyl-2-(((1-methylpiperidin-4-yl)amino)methyl)pyrimidin-5-yl)-4-methyl-1-oxo-3,4-dihydropyrazino[1,2-a]indol-2(1H)-yl)-1-methyl-1H-indole-5-carboxylic acid] | 4.7 nM | 1200 nM | – | – |
| Cc1cc(OCCCc2c3n(c4c(-c5c(C)nn(C)c5C)c(Cl)ccc24)[C@H](C)CN(c2cc(OCC4COC4)cc4cc(C(=O)O)n(C)c24)C3=O)cc(C)c1Cl [Example 459, (R)-7-(7-Chloro-10-(3-(4-chloro-3,5-dimethylphenoxy)propyl)-4-methyl-1-oxo-6-(1,3,5-trimethyl-1H-pyrazol-4-yl)-3,4-dihydropyrazino[1,2-a]indol-2(1H)-yl)-1-methyl-5-(oxetan-3-ylmethoxy)-1H-indole-2-carboxylic acid] | 1 nM | 510 nM | – | – |
| Cc1cc(OCCCc2c3n(c4c(-c5c(C)nn(C)c5C)c(Cl)ccc24)[C@H](C)CN(c2cc(Cl)cc4cc(C(=O)O)oc24)C3=O)cc(C)c1Cl [Example 259, (R)-5-Chloro-7-(7-chloro-10-(3-(4-chloro-3,5-dimethylphenoxy)propyl)-4-methyl-1-oxo-6-(1,3,5-trimethyl-1H-pyrazol-4-yl)-3,4-dihydropyrazino[1,2-a]indol-2(1H)-yl)benzofuran-2-carboxylic acid] | < 1 nM | – | – | 3500 nM |
| Cc1cc(OCCCc2c3n(c4c(-c5c(C)nn(C)c5C)c(Cl)ccc24)CCCN(c2cc(C(=O)O)c4c(Br)cn(C)c4c2)C3=O)cc(C)c1Cl [Example 2, 3-Bromo-6-(8-chloro-11-(3-(4-chloro-3,5-dimethylphenoxy)propyl)-1-oxo-7-(1,3,5-trimethyl-1H-pyrazol-4-yl)-4,5-dihydro-1H-[1,4]diazepino[1,2-a]indol-2(3H)-yl)-1-methyl-1H-indole-4-carboxylic acid] | < 1 nM | 8300 nM | – | – |
| Cc1cc(N2C[C@@H](C)n3c(c(CCCOc4cc(C)c(Cl)c(C)c4)c4ccc(Cl)c(-c5c(C)ncnc5C)c43)C2=O)c2c(c1)cc(C(=O)O)n2Cc1ccccn1 [Example 296, 7-[(4R)-7-chloro-10-[3-(4-chloro-3,5-dimethyl-phenoxy)propyl]-6-(4,6-dimethylpyrimidin-5-yl)-4-methyl-1-oxo-3,4-dihydropyrazino[1,2-a]indol-2-yl]-5-methyl-1-(2-pyridylmethyl)indole-2-carboxylic acid] | < 1 nM | 240 nM | – | – |
| Cc1nn(C)c(C)c1-c1c(Cl)ccc2c(CCCOc3ccc(Cl)cc3)c3n(c12)[C@H](C)CN(c1cn(C)c2ccc(C(=O)O)cc12)C3=O [Example 409, (R)-3-(7-Chloro-10-(3-(4-chlorophenoxy)propyl)-4-methyl-1-oxo-6-(1,3,5-trimethyl-1H-pyrazol-4-yl)-3,4-dihydropyrazino[1,2-a]indol-2(1H)-yl)-1-methyl-1H-indole-5-carboxylic acid] | 1.3 nM | 2800 nM | – | – |
| (R)-4-(7-chloro-10-(3-(4-chloro-3,5-dimethylphenoxy)propyl)-4-methyl-1-oxo-6-(1,3,5-trimethyl-1H-pyrazol-4-yl)-3,4-dihydropyrazino[1,2-a]indol-2(1H)-yl)-2-methyl-2H-indazole-1-carboxylic acid [Example 97] | < 1 nM | – | 3400 nM | – |
